Tests used:
THP-1 cells = experiment: MTS cell viability, THP-1; assay type: cell-based; conditions: Homo sapiens, 48 hrs, unit inferred
Protocol: (§1) In order to identify chemical compounds that may target TET1 signaling, the drug-sensitivity/gene expression database of a total of 20,602 chemical compounds in the NCI-60 collection of cancer cell samples was searched.
(§2) All cell lines were authenticated through STR profiling yearly.
(§3) These experiments were conducted as described previously (Jiang, X., et al., Blockade of miR-150 Maturation by MLL-Fusion/MYC/LIN-28 Is Required for MLL-Associated Leukemia, Cancer Cell 22:524-35 (2012); Li, Z., et al., miR-196b directly targets both HOXA9/MEIS1 oncogenes and FAS tumour suppressor in MLL-rearranged leukaemia, Nat Commun 2:688 (2012)) with ApoLive-Glo Multiplex Assay Kit, or CellTiter 96 AQueous Non-Radioactive Cell Proliferation Assay Kit (Promega, Madison, Wis.).

KOCL-48 cells = experiment: MTS cell viability, KOCL-48; assay type: cell-based; conditions: 48 hrs, unit inferred
Protocol: as §1, §2, §3

[1] = tested on: MONOMAC-6, THP-1, KOCL-48 and KASUMI-1 cells; experiment: MTS cell viability, four TET1-high AML cell lines together; assay type: cell-based
Protocol: as §1, §2, §3

[2] = target: STAT3 and the TET1 CpG island (Homo sapiens, UniProt P40763); experiment: Electrophoretic mobility shift assay (EMSA); assay type: biochemical
Protocol: EMSA was conducted with EMSA Assay Kit (Signosis, Santa Clara, Calif.) according to the manufacturer's protocol with minor modifications. Briefly, purified STAT3 protein was incubated with Biotin-labeled TET1-CPG probe (hot probe) and/or cold probe, and then protein/DNA complexes were separated on a non-denaturing polyacrylamide gel. Bands were detected using Streptavidin-HRP conjugate and a chemiluminescent substrate. The sequences of the TET1-CPG probe are: Forward: 5′ Biotin-[…]-3′ (SEQ ID NO: 11); Reverse: 5′ Biotin-[…]-3′ (SEQ ID NO: 12).

[3] = tested on: STAT3 and STAT5 phosphorylation; experiment: Western blotting of STAT phosphorylation in MONOMAC-6 cells; assay type: cell-based; conditions: 250 nM, 0 min to 24 hrs
Source text: FIG. 10. […] Relative cell viabilities are shown. […] Levels of TET1 transcripts are shown. […] (e-h) MONOMAC-6, THP-1 and NB4 cells were transfected with control siRNA (siNC), siSTAT3, or siSTAT5. Expression levels of STAT5 (e), STAT3 (f), TET2 (g) and TET3 (h) were detected by qPCR 48 hrs post-transfection. (i) THP-1 cells were transfected with control siRNA (siNC), siTET1, siJAK1 or siSTAT5. Gene expression levels were detected by qPCR 48 hrs post-transfection. […] (j) ChIP-qPCR assay was carried out 48 hrs after drug treatment. Enrichment of TET1 or IgG at the JAK1 promoter region and other regions are shown. […] Protein levels were detected thereafter. […] Expression levels of TET1, HIF2 a, IL2RA and FRA2 (1) were detected through qPCR. The enrichment of STAT5 on the promoters of TET1 (Site 2; CpG), HIF2a, IL2RA and FRA2 (m) was determined through ChIP-qPCR assays. *, P<0.05; **, P<0.01, two-tailed t-test. Error bar indicates SD of triplicate experiments.
Cells were washed twice with ice-cold phosphate-buffered saline (PBS) and ruptured with RIPA buffer (Pierce, Rockford, Ill.) containing 5 mM EDTA, PMSF, cocktail inhibitor, and phosphatase inhibitor cocktail. Cell extracts were microcentrifuged for 20 min at 10,000 g and supernatants were collected. Cell lysates were resolved by SDS-PAGE and transferred onto PVDF membranes. […]

[4] = tested on: TET1-high AML (including MONOMAC-6, THP-1, and KASUMI-1) cells; experiment: MTS viability of AML cell lines versus JAK/STAT inhibitors; assay type: cell-based; conditions: MTS 48 hrs; up to 500 nM
Protocol: FIG. 4. […] (a) Structures of NSC-370284 and UC-514321. […] Cells were treated with drugs at indicated doses. Cell viability was detected by MTS 48 hrs post-treatment. Error bar indicates SD of triplicate experiments. […] Secondary BMT recipient mice were transplanted with primary leukemic BM cells with MLL-AF9 (f) or AML-ETO9a (g). […] Kaplan-Meier curves are shown. The P values were determined by log-rank test. […] Secondary BMT recipient mice were transplanted with primary leukemic BM cells with MLL-AF10 or FLT3-ITD/NPM1^mut. […] Kaplan-Meier curves are shown. The P values were determined by log-rank test. (j) Wright-Giemsa staining of mouse PB and BM, or H&E staining of mouse spleen and liver of MLL-AF9 AML secondary BMT recipients with or without drug treatment.
as §3

in vivo = experiment: in vivo; design: species or system C57BL/6 mice; conditions: C57BL/6, mouse
Source text: FIG. 17. […] Error bar indicates SD of triplicate experiments.

Chain of STAT3 and the TET1 CpG island (P40763 whole entry, species assumed): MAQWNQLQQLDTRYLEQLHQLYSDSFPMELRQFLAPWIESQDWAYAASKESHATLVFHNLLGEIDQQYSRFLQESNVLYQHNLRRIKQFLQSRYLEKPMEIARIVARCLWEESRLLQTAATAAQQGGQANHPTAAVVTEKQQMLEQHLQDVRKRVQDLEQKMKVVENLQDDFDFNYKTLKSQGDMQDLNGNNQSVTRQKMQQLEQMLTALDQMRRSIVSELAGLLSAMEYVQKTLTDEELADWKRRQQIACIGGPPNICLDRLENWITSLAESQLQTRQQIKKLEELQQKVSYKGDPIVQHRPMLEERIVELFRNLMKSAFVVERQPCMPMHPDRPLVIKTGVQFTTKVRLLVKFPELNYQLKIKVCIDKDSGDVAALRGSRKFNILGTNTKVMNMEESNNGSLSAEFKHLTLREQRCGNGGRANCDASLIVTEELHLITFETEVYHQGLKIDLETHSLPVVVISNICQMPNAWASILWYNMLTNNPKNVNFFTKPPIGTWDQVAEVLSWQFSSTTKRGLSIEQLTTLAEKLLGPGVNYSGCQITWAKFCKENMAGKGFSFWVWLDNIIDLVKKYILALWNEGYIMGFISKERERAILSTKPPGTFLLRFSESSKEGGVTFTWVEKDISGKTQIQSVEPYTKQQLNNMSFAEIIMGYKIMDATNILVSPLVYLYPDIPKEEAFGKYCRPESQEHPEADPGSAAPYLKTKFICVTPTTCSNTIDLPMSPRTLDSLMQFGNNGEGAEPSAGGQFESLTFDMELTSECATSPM

Question: What does the source list for COc1cc(C(c2cc3c(cc2O)OCO3)N2CCCC2)cc(OC)c1OC (centres unmarked) [NSC-370284, 6-(1-Pyrrolidinyl(3,4,5-trimethoxyphenyl)methyl)-1,3-benzodioxol-5-ol]?
Answer: IC50 (THP-1 cells): 0.356 nM; IC50 (KOCL-48 cells): 38.2 nM; inhibition of cell viability of all four TET1-high AML cell lines ([1]; 0, 50, 200, 500 nM, MTS 48 hours, among top 20 candidates): most significant effects in inhibiting cell viability; cell viability at low dose, short term ([1]; 25 nM, 24 hours, MONOMAC-6, THP-1 and KOCL-48 cells): very minor decrease; IC50 ([1]; average over the cell lines, unit inferred): 9.75 nM; association between STAT3 and the TET1 CpG island [2]: almost be completely blocked; levels of STAT3 and STAT5 phosphorylation [3]: no significant alterations

Question: For CC(C)(C)c1cc(C(c2cc3c(cc2O)OCO3)N2CCOCC2)cc(C(C)(C)C)c1O (centres unmarked) [UC-514321, 6-{[4-Hydroxy-3,5-bis(2-methyl-2-propanyl)phenyl](4-morpholinyl)methyl}-1,3-benzodioxol-5-ol], which “effect in repressing viability of TET1-high AML cells compared with NSC-370284 and other JAK/STAT inhibitors” value [4] is on record?
Answer: enhanced effect

Question: And the half-life (in vivo)?
Answer: 11 h

Question: What about the AUC(0-inf) (in vivo; ip, 15 mg/kg) of the same compound?
Answer: 29.4 ± 2.75 µg·h/mL

Question: What about the Clearance (in vivo; ip, 15 mg/kg) of the same compound?
Answer: 1.36 ± 0.08 L/h/kg

Question: What about the MRT (in vivo; ip, 15 mg/kg) of the same compound?
Answer: 16.1 ± 1.79 h

Question: And the “Volume of Distribution” value (in vivo; ip, 15 mg/kg)?
Answer: 21.66 ± 1.74 L/kg

Question: What about the half-life (in vivo; ip, 15 mg/kg) of the same compound?
Answer: 11 ± 2.51 h
